Test results: patent publication US11873298B2, “Compounds and uses thereof” (JANSSEN PHARMACEUTICA NV, priority 2017, dated 2024)

How the values were obtained:
yeast OLE1 = molecular target: T1, yeast OLE1 (Saccharomyces cerevisiae, UniProt P21147); experiment: Growth of yeast surviving solely on yeast OLE1; type: cell-based
T1 construct: expressed in transfected cells; host or cells: S. cerevisiae ole1Δ strain (W303 pdr1Δ pdr3Δ background), plasmid pRS316 with TDH3 promoter and CYC1 terminator
T1 sequence (P21147 1-510): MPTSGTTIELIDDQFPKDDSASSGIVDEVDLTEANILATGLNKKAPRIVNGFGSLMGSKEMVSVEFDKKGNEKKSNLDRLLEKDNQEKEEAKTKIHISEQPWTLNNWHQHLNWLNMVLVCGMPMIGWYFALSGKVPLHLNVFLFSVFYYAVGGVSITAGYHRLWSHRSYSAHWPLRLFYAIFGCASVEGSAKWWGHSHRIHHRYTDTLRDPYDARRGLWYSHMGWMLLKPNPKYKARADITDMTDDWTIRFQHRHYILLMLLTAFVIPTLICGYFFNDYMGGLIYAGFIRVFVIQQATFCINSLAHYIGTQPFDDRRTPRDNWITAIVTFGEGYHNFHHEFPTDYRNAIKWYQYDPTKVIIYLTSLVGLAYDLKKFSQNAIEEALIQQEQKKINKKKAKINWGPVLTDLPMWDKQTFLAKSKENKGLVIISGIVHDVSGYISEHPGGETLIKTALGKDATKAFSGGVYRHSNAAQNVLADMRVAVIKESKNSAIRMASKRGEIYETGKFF
Protocol: (§1) FIG. 6 is a series of graphs showing that commercial Scd inhibitors target human SCD1/SCD5 in yeast. Yeast surviving solely on yeast OLE1, or human SCD1 or SCD5, were treated with four commercial Scd inhibitors at indicated concentrations. Data are expressed as a percent of the DMSO-treated condition.
(§2) FIG. 7 is a series of graphs showing that 1,2,4-oxadiazoles target human SCD1 and SCD5. Three “SCD” strains expressing yeast OLE1 or human SCD1 or SCD5 were treated with five representative 1,2,4-oxadiazoles and a cycloheximide toxicity control at concentrations indicated on the log10 x-axis. The y-axis indicates the percent of the DMSO-treated condition. […] Approximately one half of all (250) 1,2,4-oxadiazoles tested inhibited SCD1 or SCD5 in a manner that was reversed by oleic/palmitoleic acid treatment.

SCD1 = molecular target: T2, SCD1 (Homo sapiens, UniProt O00767); experiment: Growth of yeast surviving solely on human SCD1; type: cell-based
T2 construct: host or cells: S. cerevisiae ole1Δ strain (W303 pdr1Δ pdr3Δ background), plasmid pRS316 with TDH3 promoter and CYC1 terminator
T2 sequence (O00767 1-359): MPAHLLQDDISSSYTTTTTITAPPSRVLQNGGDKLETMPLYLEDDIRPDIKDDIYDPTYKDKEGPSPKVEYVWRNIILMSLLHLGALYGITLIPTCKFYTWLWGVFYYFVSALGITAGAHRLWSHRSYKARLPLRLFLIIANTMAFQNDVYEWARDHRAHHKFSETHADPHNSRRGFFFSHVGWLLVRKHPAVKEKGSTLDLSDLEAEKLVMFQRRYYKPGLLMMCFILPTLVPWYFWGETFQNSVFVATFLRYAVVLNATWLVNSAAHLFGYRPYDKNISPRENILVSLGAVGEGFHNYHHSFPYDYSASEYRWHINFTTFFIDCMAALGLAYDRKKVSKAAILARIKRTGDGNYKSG
Protocol: as §1, §2

SCD5 = molecular target: T3, SCD5 (Homo sapiens, UniProt Q86SK9); experiment: Growth of yeast surviving solely on human SCD5; type: cell-based
T3 construct: host or cells: S. cerevisiae ole1Δ strain (W303 pdr1Δ pdr3Δ background), plasmid pRS316 with TDH3 promoter and CYC1 terminator
T3 sequence (Q86SK9 1-330): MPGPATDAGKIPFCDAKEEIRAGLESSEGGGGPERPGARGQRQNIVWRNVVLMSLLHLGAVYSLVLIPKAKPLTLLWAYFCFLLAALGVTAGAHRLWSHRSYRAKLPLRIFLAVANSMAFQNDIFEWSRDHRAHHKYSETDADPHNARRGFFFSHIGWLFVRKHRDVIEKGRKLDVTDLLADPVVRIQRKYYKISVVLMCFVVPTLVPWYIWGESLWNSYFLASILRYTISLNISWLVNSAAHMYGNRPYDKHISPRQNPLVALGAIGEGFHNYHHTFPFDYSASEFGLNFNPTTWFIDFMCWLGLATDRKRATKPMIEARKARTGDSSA
Protocol: as §1, §2

[1] = test system: yeast strains expressing the human α-synuclein; details: reference compound, earlier work; cited from earlier work

Row | Compound | growth of the strain expressing yeast OLE1 (percent of the DMSO-treated condition) (yeast OLE1) | growth of SCD1-expressing yeast (percent of the DMSO-treated condition) (SCD1) | growth of SCD5-expressing yeast (percent of the DMSO-treated condition) (SCD5) | rescue of αSyn toxicity in yeast models [1]
1 | C[C@@H]1C[C@@H]([C@H](O)CC2CC(=O)NC(=O)C2)C(=O)[C@@H](C)C1 [Cyclohexamide, cycloheximide] | inhibited growth of all three strains with the same potency | inhibited growth of all three strains with the same potency | inhibited growth of all three strains with the same potency | –
2 | C=CC[C@@H]1/C=C(\C)C[C@H](C)C[C@H](OC)[C@H]2O[C@@](O)(C(=O)C(=O)N3CCCC[C@H]3C(=O)O[C@H](/C(C)=C/[C@@H]3CC[C@@H](O)[C@H](OC)C3)[C@H](C)[C@@H](O)CC1=O)[C@H](C)C[C@@H]2OC [FK506, tacrolimus] | – | – | – | rescue αSyn toxicity
